Results as given in ChEMBL document CHEMBL4334512, “Rationally Designed, Conformationally Constrained Inverse Agonists of RORγt-Identification of a Potent, Selective Series with Biologic-Like in Vivo Efficacy” (J Med Chem, 2019).

Legend:
[1] = target: T1, Nuclear receptor ROR-beta (Homo sapiens, UniProt Q92753); test: Agonist activity at RORbeta (unknown origin) by Gal4-Luc reporter gene assay
T1 sequence (Q92753 whole entry): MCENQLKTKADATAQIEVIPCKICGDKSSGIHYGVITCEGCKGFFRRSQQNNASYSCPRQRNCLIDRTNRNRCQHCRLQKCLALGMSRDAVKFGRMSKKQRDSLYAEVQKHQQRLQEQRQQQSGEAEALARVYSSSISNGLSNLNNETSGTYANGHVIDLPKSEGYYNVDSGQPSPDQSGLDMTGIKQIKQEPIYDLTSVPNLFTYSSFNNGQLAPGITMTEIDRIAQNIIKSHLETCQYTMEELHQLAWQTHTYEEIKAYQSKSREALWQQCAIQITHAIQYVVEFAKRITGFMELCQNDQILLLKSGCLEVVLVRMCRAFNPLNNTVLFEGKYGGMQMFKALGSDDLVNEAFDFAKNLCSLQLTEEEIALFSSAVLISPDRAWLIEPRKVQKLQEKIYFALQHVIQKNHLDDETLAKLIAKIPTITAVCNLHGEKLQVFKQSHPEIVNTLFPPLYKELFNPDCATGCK

[2] = Half life in rat at 2 mg/kg, iv; format: ADME, organism-based; conditions: in vivo
[3] = target: T2, Oxysterols receptor LXR-beta (Homo sapiens, UniProt P55055); test: Activity at LXRbeta (unknown origin)
T2 sequence (P55055 whole entry): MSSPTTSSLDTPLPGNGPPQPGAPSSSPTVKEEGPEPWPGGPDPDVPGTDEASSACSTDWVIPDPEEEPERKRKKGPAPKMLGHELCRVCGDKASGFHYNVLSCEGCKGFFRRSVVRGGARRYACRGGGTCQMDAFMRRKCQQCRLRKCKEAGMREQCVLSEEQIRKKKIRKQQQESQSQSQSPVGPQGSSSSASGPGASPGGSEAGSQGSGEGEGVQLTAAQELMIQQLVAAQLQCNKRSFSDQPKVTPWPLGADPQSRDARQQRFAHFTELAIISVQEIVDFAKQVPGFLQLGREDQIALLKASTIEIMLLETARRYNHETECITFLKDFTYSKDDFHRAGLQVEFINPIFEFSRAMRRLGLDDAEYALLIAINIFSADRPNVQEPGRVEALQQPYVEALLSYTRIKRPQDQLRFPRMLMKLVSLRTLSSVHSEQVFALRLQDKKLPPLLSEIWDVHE

[4] = Drug level in Balb/c mouse at 10 mg/kg, po after 24 hrs; format: ADME, organism-based; conditions: in vivo, read-out: Drug uptake
Mus musculus [5] = test: Suppression of ear thickness in mouse model of IL-23 induced acanthosis model of psoriasis at 10 mg/kg, po BID for 10 days measured every other day relative to control; format: functional; conditions: 240 h
Mus musculus [6] = test: Suppression of ear thickness in mouse model of IL-23 induced acanthosis model of psoriasis at 3 mg/kg, po BID for 10 days measured every other day relative to control; format: functional; conditions: 240 h
Mus musculus [7] = test: Suppression of ear thickness in mouse model of IL-23 induced acanthosis model of psoriasis at 10 mg/kg, po BID for 10 days measured every other day relative to anti-IL-23 positive control; format: functional
[8] = Half life in rat liver microsomes; format: ADME, Microsome
[9] = Total AUC in rat at 4 mg/kg, po; format: ADME, organism-based; set-up: dose 4 mg/kg, route oral, time AUCmax; conditions: in vivo
[10] = Permeability across apical to basolateral side in human Caco2 cells; format: ADME, cell-based; conditions: Caco-2, read-out: permeability
Mus musculus [11] = test: Suppression of ear thickness in mouse model of IL-23 induced acanthosis model of psoriasis at 30 mg/kg, po BID for 10 days measured every other day relative to anti-IL-23 positive control; format: functional
[12] = Oral bioavailability in mouse at 4 mg/kg; format: ADME, organism-based; conditions: in vivo
Mus musculus [13] = test: Suppression of IL-17F RNA expression in skin region of mouse model of IL-23 induced acanthosis model of psoriasis at 10 mg/kg, po BID for 10 days measured every other day relative to control; format: functional; conditions: 240 h
[14] = Clearance in rat at 2 mg/kg, iv; format: ADME, organism-based; conditions: in vivo
[15] = Half life in mouse at 2 mg/kg, iv; format: ADME, organism-based; conditions: in vivo
[16] = Cmax in Balb/c mouse at 10 mg/kg, po; format: ADME, organism-based; set-up: dose 10 mg/kg, route oral; conditions: in vivo
Mus musculus [17] = test: Suppression of IL-17F RNA expression in skin region of mouse model of IL-23 induced acanthosis model of psoriasis at 30 mg/kg, po BID for 10 days measured every other day relative to control; format: functional; conditions: 240 h
[18] = Half life in human liver microsomes; format: ADME, Microsome
Cytochrome P450 2C9 = Cytochrome P450 2C9 (Homo sapiens, UniProt P11712); test: Inhibition of recombinant CYP2C9 (unknown origin); format: ADME
Mus musculus [19] = test: Suppression of IL-17F production in mouse stimulated at time -24 hrs with IL-2 and at time 0, 7, and 24 hrs with IL-2/IL-23 mixture dosed with compound at 0 and 24 hrs and measured at 30 hrs
[20] = target: T2, Oxysterols receptor LXR-beta; test: Agonist activity at LXRbeta (unknown origin) by Gal4-Luc reporter gene assay
Mus musculus [21] = test: Suppression of IL-17F RNA expression in skin region of mouse model of IL-23 induced acanthosis model of psoriasis at 3 mg/kg, po BID for 10 days measured every other day relative to control; format: functional; conditions: 240 h
Cytochrome P450 2D6 = Cytochrome P450 2D6 (Homo sapiens, UniProt P10635); test: Inhibition of recombinant CYP2D6 (unknown origin); format: ADME
Cytochrome P450 2C19 = Cytochrome P450 2C19 (Homo sapiens, UniProt P33261); test: Inhibition of recombinant CYP2C19 (unknown origin); format: ADME
[22] = Total AUC in mouse at 4 mg/kg, po; format: ADME, organism-based; set-up: dose 4 mg/kg, route oral, time AUCmax; conditions: in vivo
[23] = Clearance in mouse at 2 mg/kg, iv; format: ADME, organism-based; conditions: in vivo
[24] = target: T3, Oxysterols receptor LXR-alpha (Homo sapiens, UniProt Q13133); test: Agonist activity at LXRalpha (unknown origin) by Gal4-Luc reporter gene assay
T3 sequence (Q13133 whole entry): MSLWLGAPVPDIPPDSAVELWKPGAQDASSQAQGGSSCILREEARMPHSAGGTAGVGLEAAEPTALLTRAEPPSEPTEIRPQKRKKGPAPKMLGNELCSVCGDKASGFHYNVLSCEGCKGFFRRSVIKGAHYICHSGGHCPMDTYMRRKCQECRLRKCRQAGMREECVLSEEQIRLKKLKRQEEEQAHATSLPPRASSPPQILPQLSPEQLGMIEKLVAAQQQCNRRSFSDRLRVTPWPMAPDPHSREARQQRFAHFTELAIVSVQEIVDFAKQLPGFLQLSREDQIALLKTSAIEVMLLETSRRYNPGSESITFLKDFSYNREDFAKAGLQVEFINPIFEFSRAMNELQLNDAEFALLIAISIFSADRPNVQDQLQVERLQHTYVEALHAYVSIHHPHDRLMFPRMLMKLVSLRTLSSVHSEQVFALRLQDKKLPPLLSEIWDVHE

[25] = Unbound fraction in mouse serum; format: ADME, cell-free
[26] = Cmax in dog at 1 mg/kg, po; format: ADME, organism-based, Canis lupus familiaris; set-up: dose 1 mg/kg, route oral; conditions: in vivo
[27] = target: T3, Oxysterols receptor LXR-alpha; test: Activity at LXRalpha (unknown origin)

Sequence of Cytochrome P450 2D6 (P10635 whole entry): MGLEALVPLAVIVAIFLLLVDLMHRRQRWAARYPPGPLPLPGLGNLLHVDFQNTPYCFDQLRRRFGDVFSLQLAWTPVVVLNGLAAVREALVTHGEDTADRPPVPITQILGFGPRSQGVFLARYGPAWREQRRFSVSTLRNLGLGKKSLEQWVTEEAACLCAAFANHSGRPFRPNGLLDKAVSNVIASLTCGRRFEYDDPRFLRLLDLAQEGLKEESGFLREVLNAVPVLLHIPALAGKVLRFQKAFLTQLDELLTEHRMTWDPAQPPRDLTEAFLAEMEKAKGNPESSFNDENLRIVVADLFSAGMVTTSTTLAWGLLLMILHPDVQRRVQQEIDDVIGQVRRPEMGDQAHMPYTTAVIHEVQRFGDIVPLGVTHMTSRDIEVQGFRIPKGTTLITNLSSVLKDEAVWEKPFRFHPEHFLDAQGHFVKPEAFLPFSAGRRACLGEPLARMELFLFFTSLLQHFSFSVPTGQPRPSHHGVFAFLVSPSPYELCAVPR
Sequence of Cytochrome P450 2C19 (P33261 whole entry): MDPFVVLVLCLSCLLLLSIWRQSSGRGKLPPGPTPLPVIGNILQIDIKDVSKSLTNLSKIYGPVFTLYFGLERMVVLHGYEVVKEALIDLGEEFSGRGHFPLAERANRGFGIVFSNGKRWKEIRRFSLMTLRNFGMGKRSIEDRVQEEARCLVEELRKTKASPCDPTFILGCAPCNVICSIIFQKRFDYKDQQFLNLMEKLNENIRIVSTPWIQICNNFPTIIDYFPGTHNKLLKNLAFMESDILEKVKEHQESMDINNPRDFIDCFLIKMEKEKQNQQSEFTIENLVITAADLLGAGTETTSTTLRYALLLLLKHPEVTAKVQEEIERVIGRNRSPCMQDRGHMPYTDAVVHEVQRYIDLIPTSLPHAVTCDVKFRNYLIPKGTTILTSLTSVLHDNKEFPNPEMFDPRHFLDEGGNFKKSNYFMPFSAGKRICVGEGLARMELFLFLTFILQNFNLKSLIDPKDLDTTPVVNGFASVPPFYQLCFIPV
Sequence of Cytochrome P450 2C9 (P11712 whole entry): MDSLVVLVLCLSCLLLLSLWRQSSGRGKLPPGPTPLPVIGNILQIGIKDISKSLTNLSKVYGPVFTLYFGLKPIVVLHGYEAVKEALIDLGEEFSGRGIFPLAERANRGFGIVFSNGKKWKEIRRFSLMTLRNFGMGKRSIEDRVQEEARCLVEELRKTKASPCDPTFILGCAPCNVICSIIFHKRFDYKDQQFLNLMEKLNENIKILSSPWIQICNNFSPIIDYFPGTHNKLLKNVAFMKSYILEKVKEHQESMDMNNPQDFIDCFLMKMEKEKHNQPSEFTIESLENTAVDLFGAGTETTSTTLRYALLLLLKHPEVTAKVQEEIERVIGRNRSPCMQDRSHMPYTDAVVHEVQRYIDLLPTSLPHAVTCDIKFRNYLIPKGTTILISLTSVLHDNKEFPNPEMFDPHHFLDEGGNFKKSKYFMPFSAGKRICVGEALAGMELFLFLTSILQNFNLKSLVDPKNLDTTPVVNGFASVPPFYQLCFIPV

- EC50 [1]: > 10 µM
- half-life [2]: 7 h
- IC50 [3]: > 10 µM
- concentration at 24 h [4]: 1100 nM
- half-life [8]: > 2 h
- AUC [9]: 17 µM·h
- Papp A→B [10]: 13 ×10⁻⁶ cm/s
- bioavailability [12]: 100%
- clearance [14]: 3.7 mL/min/kg
- half-life [15]: 15 h
- Cmax [16]: 2900 nM
- half-life [18]: > 2 h
- IC50 (Cytochrome P450 2C9): 10 µM
- EC50 (Mus musculus [19]): 0.088 µM
- EC50 [20]: > 7.5 µM
- IC50 (Cytochrome P450 2D6): > 20 µM
- IC50 (Cytochrome P450 2C19): > 20 µM
- AUC [22]: 58.2 µM·h
- clearance [23]: 1.9 mL/min/kg
- EC50 [24]: > 7.5 µM
- fraction unbound [25]: 0.007
- Cmax [26]: 700 nM
- IC50 [27]: > 10 µM
Compound: O=C(N1CC[C@@]2(S(=O)(=O)c3ccc(F)cc3)c3ccc(C(F)(C(F)(F)F)C(F)(F)F)cc3CC[C@@H]12)C1(O)CCS(=O)(=O)CC1
- inhibition in vivo at 10 mg/kg (Mus musculus [5]): 51%
- inhibition in vivo at 3 mg/kg (Mus musculus [6]): 28%
- Efficacy (Mus musculus [7]): 88%
- Efficacy (Mus musculus [11]): 98%
- inhibition in vivo at 10 mg/kg (Mus musculus [13]): 69%
- inhibition in vivo at 30 mg/kg (Mus musculus [17]): 85%
- inhibition in vivo at 3 mg/kg (Mus musculus [21]): 41%
